Source: ChEMBL document CHEMBL2074504, “Inhibition of P-glycoprotein-mediated drug transport: A unifying mechanism to explain the interaction between digoxin and quinidine [seecomments]” (Circulation, 1999)

Experiments:
[1] = molecular target: ATP-dependent translocase ABCB1 (Homo sapiens, UniProt P08183); experiment: TP_TRANSPORTER: transepithelial transport (basal to apical) in Caco-2 cells; format: functional, cell-based
[2] = molecular target: T1, ATP-dependent translocase ABCB1 (Mus musculus, UniProt P21447); experiment: TP_TRANSPORTER: increase in spleen concentration in mdr1a(-/-) mouse; format: functional, organism-based; details: in vivo
T1 sequence (P21447 whole entry): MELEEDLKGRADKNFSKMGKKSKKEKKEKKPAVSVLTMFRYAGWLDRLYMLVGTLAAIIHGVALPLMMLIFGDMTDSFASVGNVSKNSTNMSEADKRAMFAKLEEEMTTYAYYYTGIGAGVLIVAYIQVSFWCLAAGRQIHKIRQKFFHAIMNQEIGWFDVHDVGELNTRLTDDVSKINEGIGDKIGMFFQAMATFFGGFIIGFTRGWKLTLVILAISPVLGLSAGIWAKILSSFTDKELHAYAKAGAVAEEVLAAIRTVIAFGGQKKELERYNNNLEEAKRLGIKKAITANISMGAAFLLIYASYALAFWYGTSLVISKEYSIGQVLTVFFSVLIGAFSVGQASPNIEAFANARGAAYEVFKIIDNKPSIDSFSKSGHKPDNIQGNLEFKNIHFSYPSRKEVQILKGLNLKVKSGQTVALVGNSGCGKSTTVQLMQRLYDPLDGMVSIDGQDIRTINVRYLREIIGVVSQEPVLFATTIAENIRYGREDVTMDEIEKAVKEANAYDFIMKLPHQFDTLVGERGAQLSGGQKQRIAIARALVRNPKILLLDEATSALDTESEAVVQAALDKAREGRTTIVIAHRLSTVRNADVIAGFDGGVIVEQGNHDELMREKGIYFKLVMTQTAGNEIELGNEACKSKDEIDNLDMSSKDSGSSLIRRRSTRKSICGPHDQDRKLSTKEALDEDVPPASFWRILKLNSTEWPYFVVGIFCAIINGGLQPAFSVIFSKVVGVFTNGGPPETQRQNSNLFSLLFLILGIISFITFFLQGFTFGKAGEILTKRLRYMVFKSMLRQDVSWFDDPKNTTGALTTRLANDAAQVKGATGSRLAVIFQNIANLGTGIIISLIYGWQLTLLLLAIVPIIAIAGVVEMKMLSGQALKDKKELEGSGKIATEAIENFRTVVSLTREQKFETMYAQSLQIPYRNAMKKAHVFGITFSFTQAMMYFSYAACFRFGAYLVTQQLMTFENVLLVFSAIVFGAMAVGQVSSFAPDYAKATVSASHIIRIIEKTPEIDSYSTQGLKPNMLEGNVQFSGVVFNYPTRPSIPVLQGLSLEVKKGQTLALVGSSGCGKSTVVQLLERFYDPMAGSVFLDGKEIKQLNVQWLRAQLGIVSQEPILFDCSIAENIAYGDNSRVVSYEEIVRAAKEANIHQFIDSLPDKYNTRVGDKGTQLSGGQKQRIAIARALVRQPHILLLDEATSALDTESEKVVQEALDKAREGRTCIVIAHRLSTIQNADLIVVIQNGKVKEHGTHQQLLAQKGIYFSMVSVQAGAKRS

[3] = molecular target: T1, ATP-dependent translocase ABCB1; experiment: TP_TRANSPORTER: increase in small intestine concentration in mdr1a(-/-) mouse; format: functional, organism-based; details: in vivo
[4] = molecular target: T1, ATP-dependent translocase ABCB1; experiment: TP_TRANSPORTER: increase in plasma concentration in mdr1a(-/-) mouse; format: functional, organism-based; details: in vivo
[5] = molecular target: T1, ATP-dependent translocase ABCB1; experiment: TP_TRANSPORTER: increase in lung concentration in mdr1a(-/-) mouse; format: functional, organism-based; details: in vivo
[6] = molecular target: T1, ATP-dependent translocase ABCB1; experiment: TP_TRANSPORTER: increase in liver concentration in mdr1a(-/-) mouse; format: functional, organism-based; details: in vivo
[7] = molecular target: T1, ATP-dependent translocase ABCB1; experiment: TP_TRANSPORTER: increase in kidney concentration in mdr1a(-/-) mouse; format: functional, organism-based; details: in vivo
[8] = molecular target: T1, ATP-dependent translocase ABCB1; experiment: TP_TRANSPORTER: increase in brain concentration in mdr1a(-/-) mouse; format: functional, organism-based; details: in vivo

Measured: Activity

Chain of ATP-dependent translocase ABCB1 (Homo sapiens, UniProt P08183) (P08183 whole entry): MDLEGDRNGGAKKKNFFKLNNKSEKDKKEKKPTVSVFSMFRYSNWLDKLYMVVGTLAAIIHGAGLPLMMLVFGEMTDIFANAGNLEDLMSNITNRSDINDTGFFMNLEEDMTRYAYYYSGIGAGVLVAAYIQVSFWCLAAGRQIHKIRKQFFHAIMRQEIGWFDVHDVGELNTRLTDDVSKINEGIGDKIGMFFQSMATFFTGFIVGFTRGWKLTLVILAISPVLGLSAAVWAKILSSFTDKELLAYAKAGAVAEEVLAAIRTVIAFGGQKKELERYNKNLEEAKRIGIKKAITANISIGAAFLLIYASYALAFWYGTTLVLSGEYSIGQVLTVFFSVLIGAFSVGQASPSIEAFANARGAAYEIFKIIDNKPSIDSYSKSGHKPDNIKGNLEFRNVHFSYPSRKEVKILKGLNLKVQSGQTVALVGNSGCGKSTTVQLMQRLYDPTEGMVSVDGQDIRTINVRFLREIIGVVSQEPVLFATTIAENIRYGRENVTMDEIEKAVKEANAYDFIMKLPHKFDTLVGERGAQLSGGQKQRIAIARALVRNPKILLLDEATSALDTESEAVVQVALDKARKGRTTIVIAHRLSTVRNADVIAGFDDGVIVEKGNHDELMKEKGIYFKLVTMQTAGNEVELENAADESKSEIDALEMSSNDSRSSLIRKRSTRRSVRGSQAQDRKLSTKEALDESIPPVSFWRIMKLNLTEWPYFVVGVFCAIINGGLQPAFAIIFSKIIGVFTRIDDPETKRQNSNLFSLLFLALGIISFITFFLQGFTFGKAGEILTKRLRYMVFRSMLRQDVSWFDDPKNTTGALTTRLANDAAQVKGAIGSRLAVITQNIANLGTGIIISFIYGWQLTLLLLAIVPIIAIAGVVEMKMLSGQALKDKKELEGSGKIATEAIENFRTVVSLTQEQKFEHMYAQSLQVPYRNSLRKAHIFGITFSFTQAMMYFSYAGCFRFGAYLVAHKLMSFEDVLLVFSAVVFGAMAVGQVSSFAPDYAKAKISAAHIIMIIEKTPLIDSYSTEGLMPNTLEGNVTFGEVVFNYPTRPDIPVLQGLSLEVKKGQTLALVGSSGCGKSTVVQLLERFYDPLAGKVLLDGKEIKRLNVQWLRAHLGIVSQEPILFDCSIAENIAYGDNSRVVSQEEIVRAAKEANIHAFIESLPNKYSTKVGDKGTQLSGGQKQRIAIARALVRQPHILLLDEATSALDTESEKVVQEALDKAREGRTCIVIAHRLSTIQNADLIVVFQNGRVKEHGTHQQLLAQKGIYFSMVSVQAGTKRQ

C[C@H]1O[C@@H](O[C@H]2[C@@H](O)C[C@H](O[C@H]3[C@@H](O)C[C@H](O[C@H]4CC[C@@]5(C)[C@H](CC[C@@H]6[C@@H]5C[C@@H](O)[C@]5(C)[C@@H](C7=CC(=O)OC7)CC[C@]65O)C4)O[C@@H]3C)O[C@@H]2C)C[C@H](O)[C@@H]1O [DIGOXIN]
substrate [+]: [1]

C=C[C@H]1C[N@@]2CC[C@H]1C[C@@H]2[C@@H](O)c1ccnc2ccc(OC)cc12 [QUINIDINE]
not listed: [1]
substrate [+]: all other assays above
